In ChEMBL document CHEMBL2062404, “Purification and antiradical properties of the structural unit of betalains” (J Nat Prod, 2012):
Active and inactive are the calls of the source. No cut-off for these calls is given here.

Experiments:
Assay type in all cases: functional
[1] = Antioxidant activity against ABTS radical assessed as trolox equivalent after 24 hr at pH 7
[2] = Antioxidant activity against ABTS radical assessed as trolox equivalent at 50 uM after 24 hr at pH >5.5
[3] = Antioxidant activity against ABTS radical assessed as trolox equivalent at 50 uM after 24 hr at pH 5.5
[4] = Antioxidant activity assessed as ferric ion reduction by 2,4,6-tris(2- pyridyl)-s-triazine-based spectrophotometry

Structure (SMILES) | Activity [1] [equiv] | Activity [2] | Activity [3] | Activity [4]
Oc1ccc(/C=C/c2cc(O)cc(O)c2)cc1 | 2.7 |  |  | 
O=C/C=C1/C=C(C(=O)O)N[C@H](C(=O)O)C1 | 2.7 | Active | inactive | Active
